Assay results: patent US20120270237A9, “METHODS FOR THE IDENTIFICATION OF KINASE INTERACTING MOLECULES AND FOR THE PURIFICATION OF KINASE PROTEINS” (Cellzone AG, priority 2009, published 2012)

What was measured:
AAK1 = AAK1 (Homo sapiens, UniProt Q2M2I8); assay: Kinobeads competition binding, L-363 cell lysate; parameters: capturing and identification of kinases from L-363 cell lysate; endogenous in cells; host or cells: L-363 cells, treated with MG132 before harvest; settings: 10 μM free compound, L-363 lysate
Sequence of AAK1 (Q2M2I8 whole entry): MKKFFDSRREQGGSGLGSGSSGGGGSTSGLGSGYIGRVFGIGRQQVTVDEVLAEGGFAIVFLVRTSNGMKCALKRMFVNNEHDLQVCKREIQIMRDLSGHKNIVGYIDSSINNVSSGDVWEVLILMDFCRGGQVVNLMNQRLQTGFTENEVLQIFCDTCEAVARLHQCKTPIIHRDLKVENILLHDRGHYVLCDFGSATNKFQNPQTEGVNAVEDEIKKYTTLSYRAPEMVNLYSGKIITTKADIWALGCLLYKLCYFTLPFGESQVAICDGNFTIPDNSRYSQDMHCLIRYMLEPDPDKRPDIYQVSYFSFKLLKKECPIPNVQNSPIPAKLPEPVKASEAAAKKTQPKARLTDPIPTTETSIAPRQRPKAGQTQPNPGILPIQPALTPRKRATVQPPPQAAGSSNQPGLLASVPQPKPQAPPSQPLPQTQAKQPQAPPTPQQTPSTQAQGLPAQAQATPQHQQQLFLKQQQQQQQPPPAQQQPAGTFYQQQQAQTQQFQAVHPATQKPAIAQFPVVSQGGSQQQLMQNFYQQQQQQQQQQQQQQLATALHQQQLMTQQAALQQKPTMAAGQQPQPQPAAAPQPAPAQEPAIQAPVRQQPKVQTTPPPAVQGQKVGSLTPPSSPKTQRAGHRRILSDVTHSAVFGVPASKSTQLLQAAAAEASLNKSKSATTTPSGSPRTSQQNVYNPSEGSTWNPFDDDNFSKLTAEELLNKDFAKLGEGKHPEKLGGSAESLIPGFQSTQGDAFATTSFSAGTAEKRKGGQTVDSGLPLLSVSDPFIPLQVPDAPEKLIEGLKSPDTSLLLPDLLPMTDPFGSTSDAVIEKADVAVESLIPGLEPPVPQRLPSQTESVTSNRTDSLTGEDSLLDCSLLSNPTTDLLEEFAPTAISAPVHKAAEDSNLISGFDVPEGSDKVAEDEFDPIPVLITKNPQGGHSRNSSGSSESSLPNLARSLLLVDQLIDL
Protocol: (§1) To one aliquot of cell lysate 10 μM of the free compound (FIG. 3, CZC31326) was added and allowed to bind to proteins in the lysate. Then the affinity matrix with the immobilized compound was added to capture proteins that were not interacting with the previously added free compound. Beads were separated from the lysate and bead bound proteins were eluted in SDS sample buffer and subsequently separated by SDS-Polyacrylamide gel electrophoresis (FIG. 8). Suitable gel bands were cut out and subjected to in-gel proteolytic digestion with trypsin. The second lysate aliquot was processed identically, however no free compound was added (DMSO solvent control). Peptides originating from samples 1 and 2 were labeled with iTRAQ reagents (iTRAQ 114 and iTRAQ 117) and the combined samples were analyzed with a nano-flow liquid chromatography system coupled online to a tandem mass spectrometer (LC-MS/MS) experiment followed by iTRAQ reporter ion quantification in the MS/MS spectra as described in Example 2.
(§2) For this experiment the human plasma cell leukaemia line L-363 was used (German Collection of Microorganisms and Cell Cultures, DSMZ number ACC49, Braunschweig, Germany). Cells were treated for three hours with 20 μM of the proteasome inhibitor MG132 (Z-Leu-Leu-Leu-al, Sigma C2211) prior to cell harvesting.

BTK = BTK (Homo sapiens, UniProt Q06187); assay: Kinobeads competition binding, L-363 cell lysate; parameters: capturing and identification of kinases from L-363 cell lysate; endogenous in cells; host or cells: L-363 cells, treated with MG132 before harvest; settings: 10 μM free compound, L-363 lysate
Sequence of BTK (Q06187 whole entry): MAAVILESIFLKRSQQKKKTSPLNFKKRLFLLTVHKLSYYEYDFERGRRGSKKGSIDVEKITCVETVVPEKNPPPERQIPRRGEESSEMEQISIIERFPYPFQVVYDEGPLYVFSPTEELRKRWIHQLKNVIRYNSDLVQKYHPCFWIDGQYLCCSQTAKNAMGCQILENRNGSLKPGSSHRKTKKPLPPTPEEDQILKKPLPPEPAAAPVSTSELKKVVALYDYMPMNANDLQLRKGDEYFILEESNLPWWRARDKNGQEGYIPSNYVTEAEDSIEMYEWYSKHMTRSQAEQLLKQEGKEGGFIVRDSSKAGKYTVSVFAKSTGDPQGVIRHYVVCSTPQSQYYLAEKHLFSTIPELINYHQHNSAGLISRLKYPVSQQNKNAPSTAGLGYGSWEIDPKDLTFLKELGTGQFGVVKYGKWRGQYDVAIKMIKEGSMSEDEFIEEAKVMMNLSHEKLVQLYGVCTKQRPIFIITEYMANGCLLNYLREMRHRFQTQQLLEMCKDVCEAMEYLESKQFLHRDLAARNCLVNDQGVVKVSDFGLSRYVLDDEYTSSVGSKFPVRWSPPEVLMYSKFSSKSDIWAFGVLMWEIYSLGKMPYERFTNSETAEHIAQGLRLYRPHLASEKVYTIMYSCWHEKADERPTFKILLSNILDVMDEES
Protocol: as §1, §2

BIKE = BIKE (Homo sapiens, UniProt Q9NSY1); assay: Kinobeads competition binding, HL60 cell lysate; parameters: endogenous in cells; host or cells: HL60 cells; settings: 10 μM free compound
Sequence of BIKE (Q9NSY1 whole entry): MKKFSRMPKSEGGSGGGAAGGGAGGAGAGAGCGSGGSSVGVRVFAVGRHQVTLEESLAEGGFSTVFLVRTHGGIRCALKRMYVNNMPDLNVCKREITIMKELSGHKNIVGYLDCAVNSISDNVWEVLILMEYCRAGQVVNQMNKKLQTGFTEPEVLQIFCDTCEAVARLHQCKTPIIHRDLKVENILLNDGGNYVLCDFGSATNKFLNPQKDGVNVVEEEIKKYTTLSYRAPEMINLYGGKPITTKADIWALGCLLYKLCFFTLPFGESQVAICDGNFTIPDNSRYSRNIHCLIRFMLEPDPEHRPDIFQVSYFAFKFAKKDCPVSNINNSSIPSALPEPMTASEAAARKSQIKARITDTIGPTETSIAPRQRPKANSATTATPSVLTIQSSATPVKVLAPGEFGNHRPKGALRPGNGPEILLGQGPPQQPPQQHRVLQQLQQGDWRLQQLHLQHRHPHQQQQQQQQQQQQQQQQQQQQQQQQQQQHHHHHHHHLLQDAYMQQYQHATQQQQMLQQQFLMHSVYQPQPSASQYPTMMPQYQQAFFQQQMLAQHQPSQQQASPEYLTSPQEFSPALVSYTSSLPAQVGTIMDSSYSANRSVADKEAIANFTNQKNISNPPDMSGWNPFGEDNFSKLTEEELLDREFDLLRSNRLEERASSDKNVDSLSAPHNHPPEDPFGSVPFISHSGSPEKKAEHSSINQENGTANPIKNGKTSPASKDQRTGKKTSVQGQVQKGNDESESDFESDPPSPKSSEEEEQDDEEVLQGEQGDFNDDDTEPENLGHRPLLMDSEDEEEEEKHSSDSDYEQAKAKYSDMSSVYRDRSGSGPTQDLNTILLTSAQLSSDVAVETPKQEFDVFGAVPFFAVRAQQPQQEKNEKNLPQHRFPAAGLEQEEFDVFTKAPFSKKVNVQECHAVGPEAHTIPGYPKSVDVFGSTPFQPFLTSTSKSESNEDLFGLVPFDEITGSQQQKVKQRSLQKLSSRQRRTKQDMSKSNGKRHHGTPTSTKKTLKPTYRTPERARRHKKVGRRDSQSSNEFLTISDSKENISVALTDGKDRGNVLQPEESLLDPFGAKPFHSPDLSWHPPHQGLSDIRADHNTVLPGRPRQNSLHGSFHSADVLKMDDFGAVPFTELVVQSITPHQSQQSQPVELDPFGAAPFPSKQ
Protocol: (§3) To one aliquot of cell lysate 10 μM of the free compound (FIG. 3, CZC31326) was added and allowed to bind to proteins in the lysate. Then the affinity matrix with the immobilized compound (Example 1) was added to capture proteins that were not interacting with the previously added free compound. Beads were separated from the lysate and bead bound proteins were eluted in SDS sample buffer and subsequently separated by SDS-Polyacrylamide gel electrophoresis (FIG. 4). Suitable gel bands were cut out and subjected to in-gel proteolytic digestion with trypsin. The second lysate aliquot was processed identically, however no free compound was added (DMSO solvent control). Peptides originating from samples 1 and 2 were labeled with iTRAQ reagents (iTRAQ 114 and iTRAQ 117) and the combined samples were analyzed with a nano-flow liquid chromatography system coupled online to a tandem mass spectrometer (LC-MS/MS) experiment followed by iTRAQ reporter ion quantification in the MS/MS spectra (Ross et al., 2004. Mol. Cell. Proteomics 3(12):1154-1169). Further experimental protocols can be found in WO2006/134056 and a previous publication (Bantscheff et al., 2007. Nature Biotechnology 25, 1035-1044). Sepharose-beads with the immobilized compound (100 μl beads per pull-down experiment) were equilibrated in lysis buffer and incubated with a cell lysate sample containing 50 mg of protein on an end-over-end shaker (Roto Shake Genie, Scientific Industries Inc.) for 2 hours at 4° C. Beads were collected, transferred to Mobicol-columns (MoBiTech 10055) and washed with 10 ml lysis buffer containing 0.4% NP40 detergent, followed by 5 ml lysis buffer containing 0.2% detergent. To elute bound proteins, 60 μl 2×SDS sample buffer was added to the column. The column was incubated for 30 minutes at 50° C. and the eluate was transferred to a siliconized microfuge tube by centrifugation. Proteins were then alkylated with 108 mM iodoacetamid. Proteins were then separated by SDS-Polyacrylamide electrophoresis (SDS-PAGE). The peptide extracts of samples treated with 10 μM of free compound (CZC31326) and the solvent control (0.5% DMSO) were treated with different variants of the isobaric tagging reagent (iTRAQ Reagents Multiplex Kit, part number 4352135, Applied Biosystems, Foster City, Calif., USA). The iTRAQ reagents are a set of multiplexed, amine-specific, stable isotope reagents that can label peptides on amino groups in up to four different biological samples enabling simultaneous identification and quantitation of peptides. The iTRAQ reagents were used according to instructions provided by the manufacturer. The samples were resuspended in 10 μl 50 mM TEAB solution, pH 8.5 and 10 μl ethanol were added. The iTRAQ reagent was dissolved in 120 μl ethanol and 10 μl of reagent solution were added to the sample. The labeling reaction was performed at room temperature for one hour on a horizontal shaker and stopped by adding 5 μl of 100 mM TEAB and 100 mM glycine in water. The two labeled sampled were then combined, dried in a vacuum centrifuge and resuspended in 10 μl of 0.1% formic acid in water. Relative protein quantitation was performed using peak areas of iTRAQ reporter ion signals essentially as described in an earlier publication (Bantscheff et al., 2007. Nature Biotechnology 25, 1035-1044).

CHK1 = CHK1 (Homo sapiens, UniProt O14757); assay: Kinobeads competition binding, HL60 cell lysate; parameters: endogenous in cells; host or cells: HL60 cells; settings: 10 μM free compound
Sequence of CHK1 (O14757 whole entry): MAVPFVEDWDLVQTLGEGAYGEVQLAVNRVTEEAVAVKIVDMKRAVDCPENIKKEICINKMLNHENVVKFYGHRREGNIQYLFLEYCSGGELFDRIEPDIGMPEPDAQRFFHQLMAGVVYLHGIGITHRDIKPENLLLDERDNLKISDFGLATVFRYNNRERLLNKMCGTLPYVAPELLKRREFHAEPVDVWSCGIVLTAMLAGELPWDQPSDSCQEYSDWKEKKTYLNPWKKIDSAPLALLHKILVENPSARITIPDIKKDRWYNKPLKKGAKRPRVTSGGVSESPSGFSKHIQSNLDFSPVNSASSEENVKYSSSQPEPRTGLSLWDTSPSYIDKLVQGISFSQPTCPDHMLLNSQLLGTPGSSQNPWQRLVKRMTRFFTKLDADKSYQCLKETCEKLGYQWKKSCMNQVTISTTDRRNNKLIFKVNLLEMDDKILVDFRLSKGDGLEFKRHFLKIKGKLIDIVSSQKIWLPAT
Protocol: as §3

CaMK2g = CaMK2g (Homo sapiens, UniProt Q13555); assay: Kinobeads competition binding, HL60 cell lysate; parameters: endogenous in cells; host or cells: HL60 cells; settings: 10 μM free compound
Sequence of CaMK2g (Q13555 whole entry): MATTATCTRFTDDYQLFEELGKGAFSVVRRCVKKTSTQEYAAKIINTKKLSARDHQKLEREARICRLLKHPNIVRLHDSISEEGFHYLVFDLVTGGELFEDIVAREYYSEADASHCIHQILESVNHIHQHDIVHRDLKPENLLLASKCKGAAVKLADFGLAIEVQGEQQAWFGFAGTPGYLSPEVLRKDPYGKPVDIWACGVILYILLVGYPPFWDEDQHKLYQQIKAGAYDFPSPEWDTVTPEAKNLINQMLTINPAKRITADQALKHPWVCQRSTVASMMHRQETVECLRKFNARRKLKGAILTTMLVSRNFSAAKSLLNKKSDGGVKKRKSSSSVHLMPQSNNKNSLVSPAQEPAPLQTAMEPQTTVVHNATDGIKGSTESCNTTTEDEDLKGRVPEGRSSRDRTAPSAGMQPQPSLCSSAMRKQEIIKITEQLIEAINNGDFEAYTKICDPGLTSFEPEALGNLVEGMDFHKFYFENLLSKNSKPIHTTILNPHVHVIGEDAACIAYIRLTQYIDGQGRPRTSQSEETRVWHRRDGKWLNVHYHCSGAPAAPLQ
Protocol: as §3

AurA = target: T1, AurA (Homo sapiens, UniProt O14965); assay: Kinobeads competition binding, HL60 cell lysate; parameters: endogenous in cells; host or cells: HL60 cells; settings: 10 μM free compound
T1 sequence (O14965 1-403): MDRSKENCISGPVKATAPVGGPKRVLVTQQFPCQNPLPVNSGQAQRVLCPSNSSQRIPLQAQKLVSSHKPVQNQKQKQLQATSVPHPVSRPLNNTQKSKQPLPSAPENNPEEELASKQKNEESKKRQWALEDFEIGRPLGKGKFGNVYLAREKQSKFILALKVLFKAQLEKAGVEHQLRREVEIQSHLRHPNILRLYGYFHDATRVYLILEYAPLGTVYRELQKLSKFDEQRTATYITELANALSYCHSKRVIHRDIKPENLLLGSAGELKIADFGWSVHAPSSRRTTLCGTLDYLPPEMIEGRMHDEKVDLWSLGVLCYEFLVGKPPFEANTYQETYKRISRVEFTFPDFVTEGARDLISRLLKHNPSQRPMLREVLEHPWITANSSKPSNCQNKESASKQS
Protocol: as §3

RSK3 = RSK3 (Homo sapiens, UniProt Q15349); assay: Kinobeads competition binding, HL60 cell lysate; parameters: endogenous in cells; host or cells: HL60 cells; settings: 10 μM free compound
Sequence of RSK3 (Q15349 whole entry): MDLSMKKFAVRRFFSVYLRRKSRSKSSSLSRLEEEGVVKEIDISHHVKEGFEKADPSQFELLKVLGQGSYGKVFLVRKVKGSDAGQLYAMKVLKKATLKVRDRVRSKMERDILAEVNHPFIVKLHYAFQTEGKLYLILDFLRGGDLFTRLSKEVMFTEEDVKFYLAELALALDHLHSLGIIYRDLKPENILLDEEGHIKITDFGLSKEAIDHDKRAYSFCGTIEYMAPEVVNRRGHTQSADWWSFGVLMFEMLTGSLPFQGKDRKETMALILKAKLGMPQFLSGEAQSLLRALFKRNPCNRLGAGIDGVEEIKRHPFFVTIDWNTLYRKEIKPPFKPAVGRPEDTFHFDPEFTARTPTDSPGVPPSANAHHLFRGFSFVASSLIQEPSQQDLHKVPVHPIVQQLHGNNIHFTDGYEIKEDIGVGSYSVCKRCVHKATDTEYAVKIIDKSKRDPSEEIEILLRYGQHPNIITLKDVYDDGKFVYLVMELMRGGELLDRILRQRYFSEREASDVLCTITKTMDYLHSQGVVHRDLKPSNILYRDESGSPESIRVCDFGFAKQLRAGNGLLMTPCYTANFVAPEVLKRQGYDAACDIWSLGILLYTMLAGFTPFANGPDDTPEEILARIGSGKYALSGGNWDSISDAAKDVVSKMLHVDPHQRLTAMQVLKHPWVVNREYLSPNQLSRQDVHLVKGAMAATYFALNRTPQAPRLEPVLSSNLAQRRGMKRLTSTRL
Protocol: as §3

In the case of `CS(=O)(=O)Nc1ccccc1Nc1nc(Nc2cccc(OCCN)c2)ncc1Cl` [CZC31326, N-(2-(2-(3-(2-aminoethoxy)phenylamino)-5-chloropyrimidin-4-ylamino)phenyl)methanesulfonamide], the inhibition at 10 µM (AAK1) is reported as 97.4%, the Competition % (BTK) is reported as 95.7% and the inhibition at 10 µM (BIKE) is reported as 97.6%. The Competition % (CHK1) was 95.7%, the inhibition at 10 µM (CaMK2g) was 90.4% and the inhibition at 10 µM (AurA) was 96.6%. For the same compound, the inhibition at 10 µM (RSK3) was 96.9%.
